In general, melting point refers to the temperature of the solid-liquid transition. Regarding `CC(=O)Nc1nc2cc3[nH]c(-c4ccncc4)nc3cc2[nH]1`, the melting point was above 330 °C.

As to `COc1ccc(C(=O)N2c3ccccc3C(n3c4ccccc4c4ccccc43)CC2CCCCC(=O)O)cc1OC` (centres undefined), the melting point was in the range of 226 to 228 °C.

`COc1ccc(N(CCC(=O)NCC(=O)O)C(=O)c2ccc(Cl)cc2)cc1` came in with a melting point of 185 to 187 °C.

Compound `CC(C)S(=O)(=O)c1cccc(-c2nc(=O)c3ccccc3s2)n1` came in with a melting point of 205 to 206 °C.

Compound `CN1CCC(OC(c2cccc(C#CCN)c2)c2nc3ccccc3[nH]2)CC1` (centres undefined) gave a melting point of 101 °C.

`Oc1ccc(-c2nn(C3CCC3)c3c(C(F)(F)F)cccc23)c(O)c1` gave a melting point of 124 to 125 °C.

On to `O=[N+]([O-])c1ccc2c(c1)CS(=O)(=O)N2CCF`, for which the melting point lay within 142 to 144 °C.

For the compound `COc1cccc(C(=O)c2cc3ccccc3[nH]2)c1`, the melting point lay within 119 to 121 °C.

In the case of `Nc1ccc(C(=O)O)c([N+](=O)[O-])c1`, the melting point is 230 °C.

Regarding `N#CC(c1ccnc(OCc2ccccc2)n1)c1nc2ccccc2s1` (centres undefined), the melting point was in the range of 196 to 198 °C.

`CC(O)C#Cc1ncn2c1CN(C)C(=O)c1c(Cl)cccc1-2` (centres undefined) registered a melting point of 251 to 252 °C.

With `COc1ccc2sc3nc(CO)cn3c2c1`, the melting point was 189 to 190 °C.

For the compound `CC(C)(Oc1ccc(CN(Cc2ccccc2)c2ccc(Cl)cc2)cc1)C(=O)O`, the melting point was in the range of 65 to 67 °C.

For `CCc1ccnc(C(=O)c2[nH]c3cc(Cl)ccc3c2CC(=O)O)c1F`, the melting point was 193 to 194 °C.

`O=Cc1ccc(-c2ccc(-c3ccc(C=O)o3)cc2)cc1` came in with a melting point of 173 to 174 °C.

In the case of `[N-]=[N+]=N[C@@H]1CN2C(=O)N(c3cc(Cl)cc(Cl)c3)C(=O)[C@]2(Cc2ccc(Br)cc2)C1`, the melting point stood at 58.9 °C.

Compound `Cc1oc(-c2ccc(-c3ccc(-c4nc(CC(=O)OCc5ccccc5)c(C)o4)cc3)cc2)nc1CC(=O)OCc1ccccc1` displayed a melting point of 162 to 168 °C.

The compound `COCCCNc1ccc([N+](=O)[O-])cc1C` came in with a melting point of 26 to 28 °C.

In turn, `O=Cc1cc(Cl)cc(C(=O)O)c1O` yielded a melting point of 218 °C.

Take `CC(=O)C1CCC2C3CCC4CC(O)C(O)CC4(C)C3C(=O)CC12C` (centres undefined): the melting point lay in the range of 194 to 198 °C.

`CCc1cc(NC2=NCCN2C(C)=O)n(C)n1` registered a melting point of 160 to 162 °C.

Take `CCOC(=O)CCCOc1ccc2c(c1)C[C@@H](NC(=O)OC(C)(C)C)CC2`: the melting point was in the range of 96 to 98 °C.

Compound `CCOCc1nc2c(N)nc3cccnc3c2n1Cc1ccccc1` gave a melting point of 173 to 174 °C.

The compound `Cc1ccc(C(=O)c2c(Cl)cc(Cl)cc2Cl)cc1C(C)c1ccc(=O)[nH]n1` (centres undefined) gave a melting point of 221 to 222 °C.

The compound `O=C1C=C(NC(=O)C(=O)c2cn(Cc3ccc([N+](=O)[O-])cc3)c3ccccc23)CO1` came in with a melting point of 275 to 277 °C.

For the compound `CCOc1cc(C(CC#N)N2C(=O)c3cccc([N+](=O)[O-])c3C2=O)ccc1OC` (centres undefined), the melting point was in the range of 156 to 157 °C.

The compound `O=C(O)c1ccc(OCc2cccc(Cl)c2)cn1` gave a melting point of 176 to 177 °C.

Consider `Nc1ccc(OCc2ccccc2)c2cnsc12`, for which the melting point was in the range of 126 to 128 °C.

For `CCOC(=O)c1cn(C2CC2)c2c(F)c(NCC(O)COC(=O)c3ccccc3)c(F)cc2c1=O` (centres undefined), the melting point lay within 134 to 136 °C.

Compound `Cc1c(-c2ccc(C(C)(C)C)cc2)[nH]c2nccnc12` returned a melting point of 213 to 214 °C.

`O=[N+]([O-])c1ccc2c(c1)CCCCN2` returned a melting point of 73 to 75 °C.

Consider `CC(C)COC[C@H](CC(C)C)NC(=O)[C@H]1O[C@@H]1C(=O)OC(C)C`, for which the melting point is 36 to 38 °C.

Compound `O=C(O)CCc1cn(Cc2cccc(C(=O)NCCc3ccccn3)c2)nc1-c1ccccc1` showed a melting point of 166 to 167 °C.

For `Cc1cccc(C(Cl)=NNc2ccccc2)c1`, the melting point is 66 to 67 °C.

With `COC(=O)N1CCC(n2c(=O)[nH]c3cc(Cl)ccc32)C(C)C1` (centres undefined), the melting point was 196 °C.

Consider `C=Cc1ccccc1C1C(C(=O)OC)=C(C)NC(C)=C1C(=O)OC`, for which the melting point is 140 to 148 °C.

In turn, `CC(=O)c1c(C)[nH]c(CCN)c1C` displayed a melting point of 106 to 108 °C.

Compound `N=C(N)NCCc1ccc(OCCC2Oc3ccccc3N(Cc3cc(Cl)cc(Cl)c3)C2=O)cc1` (centres undefined) gave a melting point of 116 to 117 °C.

Turning to `c1ccc(CCc2nc(COc3ccc(CCCn4ccnc4)cc3)co2)cc1`, the melting point was 67 to 68 °C.

`NC1=Nc2ccc(Br)cc2C2CCCC12F` (centres undefined) registered a melting point of 220 °C.

With `Clc1ccc2[nH]c(Cc3ccccc3)c(C3=NCCN3)c2c1`, the melting point fell in the range of 299 to 300 °C.

`O=C1N(Cc2ccc(C(F)(F)F)o2)c2ccccc2C12COc1cc3c(cc12)OCCO3` (centres undefined) returned a melting point of 53 to 56 °C.

Turning to `CCCCCCCCC(SCCCCCC)C(=O)Nc1c(SC)ccc2ncc(C)cc12` (centres undefined), the melting point lay in the range of 137 to 138 °C.

In turn, `CC(C)(C)OC(=O)N1CCc2cc([N+](=O)[O-])ccc2C1` registered a melting point of 138 to 141 °C.

The compound `CCn1cc(C(=O)O)c(=O)c2cc(F)c(N3CCOC(CCl)C3)c(F)c21` (centres undefined) gave a melting point of 212 to 215 °C.

As to `COc1ccc(Cl)cc1C(=O)NCCc1ccc(Br)c(S(N)(=O)=O)c1`, the melting point turned out to be 190 °C.

Compound `O=C(c1ccccc1)N1CCC(O)CC1` came in with a melting point of 91.5 to 92 °C.

Turning to `O=c1[nH]c2cc(Cl)cc(Cl)c2c(=O)n1Cc1ccccc1Cl`, the melting point fell in the range of 193 to 198 °C.

Compound `C[C@H](O)C(=O)Nc1c(C(=O)c2cc(CO)co2)[nH]c2cc(Cl)ccc12` gave a melting point of 213 to 214 °C.

Compound `O=C1NCC=NN1c1cc(C(F)(F)F)cc(Cl)n1` showed a melting point of 197 to 198 °C.

For `O=C1N(Cc2ccncn2)c2ccccc2C12COc1cc3c(cc12)CCO3` (centres undefined), the melting point is 158 to 160 °C.

The compound `COc1ccc2c(c1)C(=NOCCN1CCCC1)c1c-2cnc2ccccc12` yielded a melting point of 85 to 86 °C.

In the case of `C=C1CCC2C3CCC4CC(OCOC)CCC4(C)C3CCC12C` (centres undefined), the melting point fell in the range of 73 to 75 °C.

As for `Nc1ccc(Nc2c(NCC3CCCO3)cc(C(=O)O)cc2S(N)(=O)=O)cc1` (centres undefined), the melting point is 253 °C.

The compound `Cn1nc(C#N)c2ccccc21` yielded a melting point of 73 °C.

For `CCCOc1ccc(CN2CCOCC2)cc1-c1nc2c(CCC)nn(C)c2c(=O)[nH]1`, the melting point fell in the range of 106 to 107 °C.

With `CCCCNc1cccc2c1C(=O)c1cccc(NCCCC)c1C2=O`, the melting point was in the range of 152 to 153 °C.

Consider `COc1ccc(Br)cc1CC#N`, for which the melting point is 60.5 to 60.9 °C.

Turning to `Cn1c2cc(Cl)ccc2c2c(CC#N)nn(-c3ccccc3)c(=O)c21`, the melting point lay within 305 to 315 °C.

Compound `Cc1oc2nc(C(=O)O)nc(OCCN(C)C)c2c1C` gave a melting point of 179 to 180 °C.

`C=CCSc1c(O)cc(C)oc1=O` showed a melting point of 98 to 98.5 °C.

The compound `COc1cc(C(=O)O)ccc1Cc1c(Cl)n(C)c2cc(Cl)c(CCNC(=O)N(C)C)cc12` had a melting point of 207 °C.

With `COC1=NS(=O)(=O)N(Cc2ccccc2)C(N)=N1`, the melting point lay in the range of 141 to 144 °C.

For `CC(C)(C)C1=NN(c2ccc(C(=O)O)cc2)C(c2cccc(Br)c2)C1` (centres undefined), the melting point is 216 °C.

In turn, `CCCCCCCCCCOc1cc(N=Nc2ccccc2)ccc1OCC1CC1` registered a melting point of 58 to 60 °C.

As for `NS(=O)(=O)c1cc2cc(CCBr)ccc2s1`, the melting point was 118 to 120 °C.

Compound `NC(=O)c1cc(-c2ccnc(Nc3cccc(Cl)c3)n2)ccn1` registered a melting point of 245 to 247 °C.

`CCn1c(=O)ccc2cnc(Nc3ccccc3OC)nc21` had a melting point of 126 to 128 °C.

Turning to `COc1ccc(C=CC(=O)Nc2cnc3cc(C)c(C)cc3c2-c2ccccc2Cl)cc1OC`, the melting point fell in the range of 210 to 211 °C.

As for `CCOC(=O)CCCN1CCC2(CC1)CN(c1ccc(C#N)cc1)C(=O)O2`, the melting point lay within 78 to 80 °C.

As to `COc1ccc(N2CCOCC2)c2sc(-c3nc4ccc(N(C)CC5CCOCC5)nc4[nH]3)nc12`, the melting point was 190 to 195 °C.

On to `CC(C)Cc1cc(OCc2ccccc2)c2c(c1)OC(C)(C)CC2C(=O)O` (centres undefined), for which the melting point lay in the range of 152 to 153 °C.

Consider `CN1C(=O)CN(C=O)C(c2ccccc2)c2cc(Cl)ccc21` (centres undefined), for which the melting point is 167 to 169 °C.

In the case of `Clc1cc(C(Cl)(Cl)Cl)nc(C(Cl)(Cl)Cl)c1`, the melting point fell in the range of 101 to 102 °C.

Regarding `COc1ccc2nc3ccc(C(C)=O)cn3c(=O)c2c1`, the melting point fell in the range of 194 to 196 °C.

The compound `CC(C)(C)OC(=O)CN(C(=O)CN1C(=O)c2ccccc2C1=O)c1ccccc1F` showed a melting point of 140 °C.

Compound `CCC(CC)NC(=O)C[C@@H](C(=O)NC[C@@H](O)[C@H](Cc1ccccc1)NC(=O)[C@@H](NC(=O)c1ccc2ccccc2n1)[C@@H](C)O)C(C)(C)C` came in with a melting point of 110 to 125 °C.

For `CC1CC(C)CN(C(=O)C2Cc3ccccc3N2)C1` (centres undefined), the melting point was 131 to 133 °C.

`CCCc1c(CSc2nnc(N)s2)ccc(C(C)=O)c1O` had a melting point of 143 to 147 °C.

`O=C(NCC12CC3CC(CC(C3)C1)C2)c1c(Cl)ccc2nc(N3C[C@@H]4C(C(=O)O)[C@@H]4C3)ccc12` (some centres undefined) had a melting point of 175 to 180 °C.

`COC(=O)c1cnoc1-c1ccc(F)cc1` returned a melting point of 92 to 93 °C.

The compound `OCCOc1ccc(-c2nc(-c3ccccc3)nc(-c3ccccc3)n2)c(O)c1` showed a melting point of 195 °C.

Turning to `Nc1nc(O)c2c(n1)NCC(CCc1ccc(C(=O)N[C@@H](CCC(=O)O)C(=O)O)[nH]1)C2` (some centres undefined), the melting point was above 260 °C.

Take `Cc1ccc(Cn2nc(CCCc3ccc(OC(C)(C)C(=O)O)cc3)[nH]c2=O)cc1C`: the melting point lay in the range of 146 to 150 °C.

The compound `CCOC(=O)C1=C(C)NC(=O)N(CCCN(C)Cc2ccccc2)C1c1cccc(Cl)c1Cl` (centres undefined) returned a melting point of 154 to 156 °C.

For the compound `OCCN1CCN(C2Cc3ccccc3Sc3cc(F)c(Cl)cc32)CC1` (centres undefined), the melting point is 150 to 152 °C.

`COC(=O)C1CCc2onc(-c3ccc(Cl)cc3)c2CC1` (centres undefined): the melting point is 70 to 71 °C.

As for `COC1(c2cccc(Sc3ccc4c(c3)C(C)(C)S(=O)(=O)C4(C)C)c2)CCOCC1`, the melting point lay within 133 to 135 °C.

For `COC(=O)CCc1cc(C(=O)c2cccc(C#N)c2)ccc1OCCCCC=Cc1ccc(OC)cc1`, the melting point lay in the range of 65 to 67 °C.

(Values after a melting point compilation (Tetko et al.; mined from patent text by program, amines drawn as free bases though some values may be those of a salt).)
